Key:
Details in all cases: exposure time: 72 h
E13 [1] = patient-derived glioblastoma stem cells of classical subtype; test: phenotypic distance (Euclidean, principal components) from DMSO controls (arbitrary units); higher = stronger morphological change
E28 [2] = patient-derived glioblastoma stem cells of classical subtype; test: as above
FT3469 [3] = normal neural stem cell line; test: as above
E57 [4] = patient-derived glioblastoma stem cells of mesenchymal subtype; test: as above
E34 [5] = patient-derived glioblastoma stem cells of proneural subtype; test: as above
E31 [6] = patient-derived glioblastoma stem cells of proneural subtype; test: as above
E21 [7] = patient-derived glioblastoma stem cells of mesenchymal subtype; test: as above
E13 [8] = test: surviving fraction (nuclei count normalised to DMSO); higher = more cells surviving (less toxic)
E28 [9] = test: as above
FT3469 [10] = test: as above
E57 [11] = test: as above
E34 [12] = test: as above
E31 [13] = test: as above
E21 [14] = test: as above
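For phenotypic distance (Euclidean, principal components) from DMSO controls in this document: cell Painting imaging in 384-well plates, CellProfiler features reduced to at least 20 principal components, Euclidean distance versus same-plate DMSO vehicle wells (0.1% v/v), median over six images per well.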
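For surviving fraction (nuclei count normalised to DMSO) in this document: nuclei counted by high-content imaging of Hoechst-stained cells in laminin-coated 384-well plates, relative to 0.1% DMSO vehicle wells, with staurosporine as cell-death control.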

COc1cccc2c(NCc3ccccc3)nc(-n3c(N)nc4ccccc43)nc12 [ML240]
Details	phenotypic distance	surviving fraction
E13 [1], 4.1 nM	0.694	–
E13 [1], 12.3 nM	0.435	–
E13 [1], 37 nM	0.787	–
E13 [1], 111.1 nM	0.753	–
E13 [1], 333.3 nM	0.67	–
E13 [1], 1000 nM	8.35	–
E13 [1], 3000 nM	10.2	–
E13 [8], 4.1 nM	–	1.1
E13 [8], 12.3 nM	–	0.999
E13 [8], 37 nM	–	1.1
E13 [8], 111.1 nM	–	1.02
E13 [8], 333.3 nM	–	0.985
E13 [8], 1000 nM	–	0.147
E13 [8], 3000 nM	–	0.00521
E21 [7], 4.1 nM	0.814	–
E21 [7], 12.3 nM	0.418	–
E21 [7], 37 nM	0.532	–
E21 [7], 111.1 nM	0.655	–
E21 [7], 333.3 nM	0.51	–
E21 [7], 1000 nM	1.08	–
E21 [7], 3000 nM	13.5	–
E21 [14], 4.1 nM	–	1.05
E21 [14], 12.3 nM	–	1.01
E21 [14], 37 nM	–	1.02
E21 [14], 111.1 nM	–	1.1
E21 [14], 333.3 nM	–	1.03
E21 [14], 1000 nM	–	1.11
E21 [14], 3000 nM	–	0.0028
E28 [2], 4.1 nM	0.413	–
E28 [2], 12.3 nM	0.802	–
E28 [2], 37 nM	0.589	–
E28 [2], 111.1 nM	0.977	–
E28 [2], 333.3 nM	0.531	–
E28 [2], 1000 nM	5.33	–
E28 [2], 3000 nM	7.6	–
E28 [9], 4.1 nM	–	1.09
E28 [9], 12.3 nM	–	0.996
E28 [9], 37 nM	–	1.01
E28 [9], 111.1 nM	–	1.17
E28 [9], 333.3 nM	–	1.03
E28 [9], 1000 nM	–	0.32
E28 [9], 3000 nM	–	0.0108
E31 [6], 4.1 nM	0.647	–
E31 [6], 12.3 nM	0.799	–
E31 [6], 37 nM	0.394	–
E31 [6], 111.1 nM	0.491	–
E31 [6], 333.3 nM	0.297	–
E31 [6], 1000 nM	6.73	–
E31 [6], 3000 nM	18.7	–
E31 [13], 4.1 nM	–	0.934
E31 [13], 12.3 nM	–	1.36
E31 [13], 37 nM	–	1.1
E31 [13], 111.1 nM	–	1.17
E31 [13], 333.3 nM	–	1.19
E31 [13], 1000 nM	–	0.0987
E31 [13], 3000 nM	–	0
E34 [5], 4.1 nM	0.596	–
E34 [5], 12.3 nM	0.636	–
E34 [5], 37 nM	0.602	–
E34 [5], 111.1 nM	0.587	–
E34 [5], 333.3 nM	0.358	–
E34 [5], 1000 nM	1.49	–
E34 [5], 3000 nM	14.2	–
E34 [12], 4.1 nM	–	1.18
E34 [12], 12.3 nM	–	1.12
E34 [12], 37 nM	–	1.04
E34 [12], 111.1 nM	–	1.05
E34 [12], 333.3 nM	–	1.18
E34 [12], 1000 nM	–	0.54
E34 [12], 3000 nM	–	0.00732
E57 [4], 4.1 nM	0.375	–
E57 [4], 12.3 nM	0.566	–
E57 [4], 37 nM	0.385	–
E57 [4], 111.1 nM	0.473	–
E57 [4], 333.3 nM	1.84	–
E57 [4], 1000 nM	4.85	–
E57 [4], 3000 nM	6.71	–
E57 [11], 4.1 nM	–	0.984
E57 [11], 12.3 nM	–	0.993
E57 [11], 37 nM	–	1.05
E57 [11], 111.1 nM	–	0.972
E57 [11], 333.3 nM	–	1.08
E57 [11], 1000 nM	–	0.255
E57 [11], 3000 nM	–	0.00471
FT3469 [3], 4.1 nM	0.656	–
FT3469 [3], 12.3 nM	0.706	–
FT3469 [3], 37 nM	0.538	–
FT3469 [3], 111.1 nM	1.16	–
FT3469 [3], 333.3 nM	0.736	–
FT3469 [3], 1000 nM	1.85	–
FT3469 [3], 3000 nM	11.7	–
FT3469 [10], 4.1 nM	–	0.963
FT3469 [10], 12.3 nM	–	1.03
FT3469 [10], 37 nM	–	1.15
FT3469 [10], 111.1 nM	–	1.33
FT3469 [10], 333.3 nM	–	1.25
FT3469 [10], 1000 nM	–	0.68
FT3469 [10], 3000 nM	–	0.00884
